Columns and labels:
in vivo = assay: in vivo; set-up: species or system male Wistar rats; details: rat, im, 120 mg/kg
Protocol: Rats are anesthetized with a lethal i.p. dose of nembutal and blood collected at 3 and 6 hours, and various days post-dose (n=5 for each timepoint) in heparinized vacutainers. Blood samples are centrifuged for 30 minutes at 5 C and at approximately 2700 rpm. Plasma is removed and stored at -20° C. until assay. The plasma samples are analyzed by an appropriate HPLC method. Brains will also be collected at the above timepoints and stored at -80° C. until analyzed by the appropriate HPLC method.

5HT2A receptor [1] = assay: Antagonism of DOI-induced behaviors in rats; format: in vivo, Male Sprague-Dawley rats; details: single i.m. injection in sesame oil, 120 mg/kg equivalent to MDL 100,907, DOI 3.0 mg/kg i.p.
Source text: The compound of the present invention used in this test was (+)-α-(2,3-Dimethyoxyphenyl)-1-[2-(4-fluorophenyl)ethyl]-4-piperidinemethanol decanoate--Example 4 herein.-- The 5-HT2A/2C agonist (±)-DOI HCl (1-(2,5-dimethoxy-4-iodophenyl)-2-aminopropane hydrochloride) induces several quantifiable behaviors in rats. These behaviors include "shakes" (a quick head and body shake, a.k.a. wet dog shakes), "forepaw tapping" (rapid forepaw treading) and "skin-jerks" (paraspinal muscle contractions or dorsal skin-shrugging).
Male Sprague-Dawley rats (180±50 g) were housed seven per cage and allowed 1 week to acclimate to the vivarium. Food and water were freely available. The temperature and light cycle (12 h on-12 h off)were automatically maintained. Individual rats were tested once. Each testing group contained seven animals. Experiments took place in the vivarium room where the animals were housed.
Vehicle control animals were injected with sesame oil alone. (±)-DOI HCl (3.0 mg/kg, 1 mL/kg body weight) was dissolved in distilled water with the aid an ultrasonic bath, and injected intraperitoneally on appropriate testing days.
(+)-α-(2,3-Dimethyoxyphenyl)-1-[2-(4-fluorophenyl)ethyl]-4-piperidinementhanol decanoate-treated rats were tested for antagonism of DOI-induced behaviors 1, 5, 7, 14, 21, 28 and 40 days after the single (+)-α-(2,3-Dimethyoxyphenyl)-1-[2-(4-fluorophenyl)ethyl]-4-piperidinementhanol decanoate intramuscular injection. Each rat was tested once. Immediately after DOI injection rats were placed under inverted clear plastic boxes (28 L×25 W×25 H cm) which were arranged on top of clean absorbent paper. Rats were continuously watched by trained observers (blind to treatment) for 30 minutes for the occurrence of DOI-induced behaviors (shakes, skin-jerks and forepaw tapping bouts) and then returned to their home cages. Rats were later used for pharmacokinetic studies. The frequencies of DOI-induced behaviors were recorded and then summed to provide a single behavioral score for each animal.
The mean and standard error of the behavioral scores of each group was determined. […]

[2] = Chronic Mild Stress Model of Depression (CMS), consumption of 1% sucrose solution; format: in vivo, Male Wistar rats
Source text: CMS uses mild stressors, such as food and water deprivation, small temperature changes, changes of cage mates, etc. Over a period of weeks of exposure to the mild stressors, the animals gradually reduce their consumption of a highly preferred sucrose solution which persists (in untreated animals) for several weeks following the cessation of stress. This decreased sensitivity to reward (the sucrose solution) reflects anhedonia, a symptom of a Major Depressive Episode (see for example, Behavioral Pharmacol.5: Suppl. 1, p. 86 (1994) where lithium, carbamazepine and ketoconazole were evaluated in CMS; Psychopharmacology 93:358-364 (1987) where a tricyclic antidepressant was evaluated in CMS; Behavioral Pharmacology:5:344-350 (1994) where a catechol-O-methyl transferase inhibitor was evaluated in CMS).
Male Wistar rats were brought into the laboratory two months before the start of the experiment at which time they weighed approximately 300 grams. Except as described below, the animals were singly housed, with food a water freely available, and maintained on a 12 hour light/dark cycle (lights on at 8 AM) at a temperature of 22±° C.
The animals were first trained to consume a 1% sucrose solution; training consisted of eight 1 hour baseline tests in which sucrose was presented, in the home cage, following 14 hours food and water deprivation; intake was measured by weighing pre-weighed bottles containing the sucrose solution at the end of the test. Subsequently, sucrose consumption was monitored, under similar conditions, at weekly intervals throughout the whole experiment.
On the basis of their sucrose intakes in the final baseline test, the animals were divided into two matched groups. One group of animals was subjected to a chronic mild stress procedure for a period of 9 consecutive weeks. Each week of stress regime consisted of: two periods of food or water deprivation (12 and 14 hour), two periods of 45 degree cage tilt (12 and 14 h), two periods of intermittent overnight illumination (lights on and off every 2 hours), two 14 hour periods of soiled cage (200 ml water in sawdust bedding), two 14 hour periods of paired housing, two 14 hour periods of low intensity stroboscopic illumination (150 flashes/min). Stressors were applied continuously throughout the day and night, and scheduled randomly. […] They were deprived of food and water for the 14 hours preceding each sucrose test, but otherwise food and water were freely available in the home cage. […] All drug injections were in a volume of 1 ml/kg body weight. Drugs were administered at 10 AM and sucrose tests were carried out 24 hours following the last drug treatment. After five weeks, the treatments were terminated and after one week of withdrawal a final sucrose test was carried out. Stress was continued throughout the period of treatment and withdrawal.
Results were analyzed by multiple analysis of variance, followed by Fisher's LSD test for post hoc comparisons of means.

5HT2A receptor [3] = details: cited from earlier work
myocardial tissue = details: no source or data given; cited from earlier work
[4] = system: dopamine efflux in the medial prefrontal cortex; details: European Journal of Pharmacology 273: 273-279 (1995); cited from earlier work
platelets = details: U.S. Pat. No. 5,561,144, cited from earlier work
[5] = system: PPI (prepulse inhibition); details: Psychopharmacology 124: 107-116 (1996); cited from earlier work
5HT2A receptor [6] = details: literature (Pranzatelli 1990; Wettstein et al. 1996); cited from earlier work
[7] = imipramine 10 mg/kg ip daily, five weeks
[8] = MDL 100,907 0.002, 0.02 and 0.2 mg/kg orally
[9] = MDL 100,907 0.002, 0.02 and 0.2 mg/kg orally, NS
[10] = MDL 100,907 0.02 and 0.2 mg/kg orally

Compound: CCCCCCCCCC(=O)O[C@@H](c1cccc(OC)c1OC)C1CCN(CCc2ccc(F)cc2)CC1 [Example 4, (+)-α-(2,3-Dimethyoxyphenyl)-1-[2-(4-fluorophenyl)ethyl]-4-piperidinementhanol decanoate]
- concentration at 3 h (in vivo): 54.2 ± 13.3 ng/mL
- concentration at 6 h (in vivo): 53.8 ± 17.1 ng/mL
- concentration at 24 h (in vivo): 54.1 ± 18 ng/mL
- concentration at 48 h (in vivo): 21.6 ± 7.39 ng/mL
- concentration at 72 h (in vivo): 39 ± 5.64 ng/mL
- concentration at 96 h (in vivo): 52 ± 12.9 ng/mL
- concentration at 144 h (in vivo): 41.9 ± 14.6 ng/mL
- concentration at 192 h (in vivo): 28.7 ± 9.16 ng/mL
- concentration at 288 h (in vivo): 21 ± 12.8 ng/mL
- concentration at 360 h (in vivo): 52.4 ± 15.2 ng/mL
- concentration at 456 h (in vivo): 40.1 ± 8.44 ng/mL
- concentration at 528 h (in vivo): 46.3 ± 9.31 ng/mL
- concentration at 624 h (in vivo): 38.9 ± 9.35 ng/mL
- concentration at 696 h (in vivo): 43.7 ± 10.8 ng/mL
- concentration at 984 h (in vivo): 24.1 ± 9.15 ng/mL
- antagonism of DOI-induced behavior at day 40 (5HT2A receptor [1]): no longer significant
- duration of significant antagonism of DOI-induced behavior (5HT2A receptor [1]; p<=0.05): 28 days
- antagonism of DOI-induced behavior (5HT2A receptor [1]; through day 28): Significantly antagonized DOI-induced behavior

Compound: CN(C)CCCN1c2ccccc2CCc2ccccc21 [Imipramine]
- sucrose intake in stressed animals, F(1,84) ([2]; imipramine 10 mg/kg ip daily): 16.776
- sucrose intake in stressed animals, p (treatment) ([2]; imipramine 10 mg/kg ip daily): < 0.001
- sucrose intake of drug-treated stressed animals vs drug- and saline-treated controls ([2]; imipramine 10 mg/kg ip daily, after five weeks of treatment): no significant differences
- effect on sucrose intake in control animals [2, 7]: no significant effect
- effect on sucrose intake in stressed animals [2, 7]: gradual increase of sucrose intake
- sucrose intake in stressed animals after withdrawal ([2]; imipramine 10 mg/kg ip daily, one week after withdrawal): maintained at similar level
- sucrose intake in control animals, F(1,84) ([2]; imipramine 10 mg/kg ip daily, NS): 0.364

Compound: COc1cccc([C@H](O)C2CCN(CCc3ccc(F)cc3)CC2)c1OC [MDL 100,907, (+)-α-(2,3-dimethoxyphenyl)-1-[2-(4-fluorophenyl)ethyl]-4-piperidinemethanol]
- 5HT2A receptor antagonist potency (5HT2A receptor [3]): potent 5HT2A receptor antagonist
- anti-arrhythmic class (Vaughan Williams) (myocardial tissue): Class III anti-arrhythmic activity
- effect on action potential of myocardial tissue (myocardial tissue): increases the duration of the action potential of myocardial tissue
- influence on dopamine efflux in the medial prefrontal cortex [4]: tonic inhibitory influence on dopamine efflux
- effect on sucrose intake throughout the whole treatment period ([2]; MDL 100,907 0.002 mg/kg orally): no significant effect
- sucrose intake in stressed animals vs Week 0 ([2]; MDL 100,907 0.02 mg/kg (after two weeks) and 0.2 mg/kg (after three weeks) orally): significantly increased from initial scores
- sucrose intake in stressed animals, Treatment effect F(3,168) [2, 8]: 22.567
- sucrose intake in stressed animals, Treatment effect p [2, 8]: < 0.001
- sucrose intake in stressed animals, Treatment x Weeks interaction F(15,158) [2, 8]: 1.559
- sucrose intake in stressed animals, Treatment x Weeks interaction p [2, 8]: 0.05
- effect on sucrose intake in control animals ([2]; MDL 100,907 0.002, 0.02 and 0.2 mg/kg orally daily, five weeks): no significant effect
- sucrose intake in control animals, Treatment effect F(3,168) [2, 9]: 0.821
- sucrose intake in control animals, Treatment x Weeks interaction F(15,168) [2, 9]: 0.499
- sucrose intake of stressed animals vs vehicle-treated controls at Week 5 [2, 10]: comparable to that of vehicle-treated controls
- sucrose intake of stressed animals vs vehicle-treated stressed animals at Week 5 [2, 10]: significantly higher than that of vehicle-treated stressed animals
- sucrose intake one week after withdrawal ([2]; MDL 100,907 all doses, control and stressed animals): not significantly changed
- effect on CMS-induced deficit in sucrose intake in stressed animals ([2]; MDL 100,907 orally daily, five weeks): gradually reversed the CMS-induced deficit in sucrose intake
- effect on rate at which platelets aggregate (platelets): decreases the rate at which platelets aggregate
- prevention of acute thrombosis (platelets; especially of the coronary arteries): effective in the prevention of acute thrombosis
- effect on disrupted PPI [5]: restore disrupted PPI

Compound: Cc1nc2sccn2c(=O)c1CCN1CCC(=C(c2ccc(F)cc2)c2ccc(F)cc2)CC1 [ritanserin]
- block of the behavioral effects of DOI (5HT2A receptor [6]): dose-dependently block the behavioral effects of DOI

Source: US6028083A, “Esters of (+)-α-(2,3-dimethoxyphenyl)-1-[2-(4-fluorophenyl) ethyl]-4-piperidinemethanol” (Hoechst Marion Roussel, Inc., priority 1997, dated 2000)
